Measured values reported in patent US20250388575A1, “HETEROBIFUNCTIONAL COMPOUNDS AND METHODS OF TREATING DISEASE” (Halda Therapeutics OpCo, Inc., priority 2022, published 2025).
Read-outs that look alike come from different tables or passages of the source.

Tests used:
[1] = test system: T-Rex 293 cell line SC3 cells having increased expression of androgen receptor protein; assay: Cellular growth inhibition, T-Rex 293 SC3 cells with increased androgen receptor expression (doxycycline), CellTiter-Glo; assay type: cell-based
Description: (§1) The following types of cells were prepared for this experiment: (i) a T-Rex 293 cell line having increased expression of androgen receptor protein due to exposure to doxycycline and (ii) a T-Rex 293 cell line lacking increased expression of androgen receptor protein. Ability of the test compounds to inhibit proliferation of the foregoing cell types was evaluated according to the procedures set forth below.
(§2) The doxycycline-inducible androgen receptor protein expressing cell line was established using the following protocol: T-Rex 293 cells were purchased from Invitrogen (Cat #R71007) and transfected using Lipofectamine 2000 with the wild-type androgen receptor protein sequence cloned into the pcDNA4/TO vector. Transfected cells were selected using 400 μg/mL Zeocin (Invitrogen Cat #R25001). Following selection, single clones were raised and maintained in Dulbecco's Modified Eagle Medium (DMEM) supplemented with 10% w/w Tetracycline-free fetal bovine serum (FBS) and 250 μg/mL Zeocin. Clones were analyzed for expression of androgen receptor protein in the presence and absence of 10 ng/ml doxycycline (Sigma Cat #D9891), and a single doxycycline-inducible clone (hereinafter “SC3”) was selected for use in downstream assays.
(§3) The SC3 cells were seeded on poly-D-lysine coated, black clear-bottom 384-well plates at 2500/well, in 25 μL Phenol Red Free Dulbecco's Modified Eagle Medium (DMEM) supplemented with 10% w/w charcoal-dextran treated fetal bovine serum (FBS) and 1% w/w pen-strep, with or without 10 ng/mL doxycycline. Pen-Strep is a commercially available mixture of penicillin G and streptomycin, which is used in mammalian cell culture media to prevent bacterial contamination. Phenol Red Free Dulbecco's Modified Eagle Medium (DMEM) supplemented with 10% w/w charcoal-dextran treated fetal bovine serum (FBS) and 1% w/w pen-strep, with or without 10 ng/mL doxycycline is herein referred to as Treatment Medium. Following seeding of cells in the plates, the plates were spun at 300×g for 30 seconds, then equilibrated to room temperature for 30 minutes, and then deposited in a humidified tissue culture incubator maintained at 37° C. with 5% CO2.
(§4) At 24 hours after seeding of the cells, dilutions of test compound were prepared in DMSO and dissolved in Treatment Medium, to achieve a final DMSO concentration of 0.5% w/w, thereby providing the Test Compound Solution. A 25 μL aliquot of the Test Compound Solution was added to cells in the well plates. An equal volume of a solution containing DMSO and Treatment Medium was used as a negative control. Following treatment of cells with Test Compound Solution or said equal volume of a solution containing DMSO and Treatment Medium, the plates were spun at 300×g for 30 seconds, and then left in an incubator for 72 hours.
(§5) At the end of the treatment duration, cell viability was quantified with CellTiter-Glo 2.0 reagent (Promega Cat #G9243). For this purpose, plates were equilibrated to room temperature for 30 minutes, and then 25 μL of CellTiter-Glo 2.0 reagent was added to cells in the plate wells. Plates were then agitated on a shaker for two minutes at 500 rpm and subsequently incubated at room temperature for 10 minutes. Following incubation, the plates were spun at 3000×g for 30 seconds, then sealed with an optical adhesive cover, and luminescence readings were measured with an EnVision Plate Reader.
(§6) Data was normalized using zero luminescence for baseline. A four-parameter non-linear regression curve fit was applied to dose-response data in GraphPad Prism data analysis software to determine the half-maximal growth inhibitory concentration (GI50) for each test compound.

[2] = test system: T-Rex 293 cell line SC3 cells lacking increased expression of androgen receptor protein; assay: Cellular growth inhibition, T-Rex 293 SC3 cells lacking increased androgen receptor expression (no doxycycline), CellTiter-Glo; assay type: cell-based
Description: as §1, §2, §3, §4, §5, §6

VCaP cells = assay: Cellular growth inhibition assay for VCaP cells, CellTiter-Glo; assay type: cell-based, human
Description: VCaP cells were purchased from American Type Cell Culture (ATCC Cat #CRL2876) and then seeded on poly-D-lysine coated, black clear-bottom 384-well plates at 5000/well in 25 μL Dulbecco's Modified Eagle Medium (DMEM) supplemented with 10% w/w Fetal bovine serum (FBS) and 1% w/w Pen-Strep. Pen-Strep is a commercially available mixture of penicillin G and streptomycin, which is used in mammalian cell culture media to prevent bacterial contamination. Dulbecco's Modified Eagle Medium (DMEM) supplemented with 10% w/w fetal bovine serum (FBS) and 1% w/w Pen-Strep is herein referred to as Treatment Medium. Following seeding of cells in the plates, the plates were spun at 300×g for 30 seconds, then equilibrated to room temperature for 30 minutes, and then deposited in a humidified tissue culture incubator maintained at 37° C. with 5% CO2.
as §4, §5, §6

[3] = T-Rex 293 SC3 cells with increased androgen receptor expression (exposed to 10 ng/mL doxycycline), 72 hours, CellTiter-Glo, read-out: GI50
[4] = T-Rex 293 SC3 cells lacking increased androgen receptor expression (not exposed to doxycycline), 72 hours, CellTiter-Glo, read-out: GI50
[5] = Homo sapiens, VCaP cells, 72 hours, CellTiter-Glo, read-out: GI50
[6] = VCaP cells, 72 hours, CellTiter-Glo, read-out: GI50

GI50 (VCaP cells; [5]) [nM]	GI50 (VCaP cells; [6]) [nM]	Structure (SMILES)	GI50 [1, 3] [nM]	GI50 [2, 4] [nM]	GI50 ([1]; 72 h) [nM]	GI50 ([2]; 72 h) [nM]	GI50 (VCaP cells; Homo sapiens, VCaP, 72 h) [nM]
> 3000		Cn1cc(-c2cc(NC(=O)CCC3CCN(c4ccc(C(=O)NC5CCC(Oc6ccc(C#N)c(Cl)c6)CC5)nn4)CC3)ccc2Oc2ccc(F)cc2F)c2cc[nH]c2c1=O (stereo not drawn) [I-212, N-[4-(3-chloro-4-cyano-phenoxy)cyclohexyl]-6-[4-[3-[4-(2,4-difluorophenoxy)-3-(6-methyl-7-oxo-1H-pyrrolo[2,3-c]pyridin-4-yl)anilino]-3-oxo-propyl]-1-piperidyl]pyridazine-3-carboxamide]	< 500	> 3000			
	< 500	CCS(=O)(=O)c1ccc(Oc2ccc(CCCCC3CCN(c4ccc(C(=O)N[C@H]5CC[C@H](Oc6ccc(C#N)c(Cl)c6)CC5)nn4)CC3)cc2)c(-c2cn(C)c(=O)c3[nH]ccc23)c1 [I-64]	< 500	500 to 1500			
< 500		Cn1cc(-c2ccccc2Oc2ccc(OCC3CCN(c4ccc(C(=O)N[C@H]5CC[C@H](Oc6ccc(C#N)c(Cl)c6)CC5)nn4)CC3)cc2)c2cc[nH]c2c1=O [I-255, N-[4-(3-chloro-4-cyano-phenoxy)cyclohexyl]-6-[4-[[4-[2-(6-methyl-7-oxo-1H-pyrrolo[2,3-c]pyridin-4-yl)phenoxy]phenoxy]methyl]-1-piperidyl]pyridazine-3-carboxamide]	< 500	> 3000			
< 500		Cn1cc(-c2cc(Br)ccc2Oc2ccc(CCC3CCN(c4ccc(C(=O)NC5CCC(Oc6ccc(C#N)c(Cl)c6)CC5)nn4)CC3)cc2)c2cc[nH]c2c1=O (stereo not drawn) [I-241, 6-[4-[2-[4-[4-bromo-2-(6-methyl-7-oxo-1H-pyrrolo[2,3-c]pyridin-4-yl)phenoxy]phenyl]ethyl]-1-piperidyl]-N-[4-(3-chloro-4-cyano-phenoxy)cyclohexyl]pyridazine-3-carboxamide]	< 500	> 3000			
< 500		CCS(=O)(=O)c1ccc(Oc2ccc(CCC3CCN(c4ccc(C(=O)NC5CCC(Oc6ccc(C#N)c(Cl)c6)CC5)nn4)CC3)cc2F)c(-c2cn(C)c(=O)c3[nH]ccc23)c1 (stereo not drawn) [I-45, N-[4-(3-chloro-4-cyano-phenoxy)cyclohexyl]-6-[4-[2-[4-[4-ethylsulfonyl-2-(6-methyl-7-oxo-1H-pyrrolo[2,3-c]pyridin-4-yl)phenoxy]-3-fluoro-phenyl]ethyl]-1-piperidyl]pyridazine-3-carboxamide]	< 500	< 500			
< 500		CCS(=O)(=O)Nc1ccc(Oc2cccc(CCCN3CCN(c4ccc(C(=O)N[C@H]5CC[C@H](Oc6ccc(C#N)c(Cl)c6)CC5)nn4)CC3)c2F)c(-c2cn(C)c(=O)c3[nH]ccc23)c1 [I-13]	< 500	< 500			
< 500		CCS(=O)(=O)Nc1ccc(Oc2cccc(OCCCC3CCN(c4ccc(C(=O)NC5CCC(Oc6ccc(C#N)c(Cl)c6)CC5)nn4)CC3)c2F)c(-c2cn(C)c(=O)c3[nH]ccc23)c1 (stereo not drawn) [I-18]	< 500	< 500			
< 500		CCS(=O)(=O)Nc1ccc(Oc2cccc(CCC3CCN(c4ccc(C(=O)N[C@H]5CC[C@H](Oc6ccc(C#N)c(Cl)c6)CC5)nn4)CC3)c2)c(-c2cn(C)c(=O)c3[nH]ccc23)c1 [I-39]	< 500	> 3000			
1500 to 3000		Cn1cc(-c2cc(NS(=O)(=O)C(F)(F)F)ccc2Oc2cccc(OCCOC3CCN(c4ccc(C(=O)N[C@H]5CC[C@H](Oc6ccc(C#N)c(Cl)c6)CC5)nn4)CC3)c2F)c2cc[nH]c2c1=O [I-24]	500 to 1500	> 3000			

More lines, now with the values behind:

Structure (SMILES)	GI50 (VCaP cells; [5]) [nM]	GI50 (VCaP cells; [6]) [nM]	GI50 [1, 3] [nM]	GI50 [2, 4] [nM]	GI50 ([1]; 72 h) [nM]	GI50 ([2]; 72 h) [nM]	GI50 (VCaP cells; Homo sapiens, VCaP, 72 h) [nM]
CCS(=O)(=O)c1ccc(-c2cn(C)c(=O)c3[nH]ccc23)c(-n2cc(CCC3CCN(c4ccc(C(=O)NC5CCC(Oc6ccc(C#N)c(Cl)c6)CC5)nn4)CC3)ncc2=O)c1 (stereo not drawn) [I-238, N-[4-(3-chloro-4-cyano-phenoxy)cyclohexyl]-6-[4-[2-[4-[5-ethylsulfonyl-2-(6-methyl-7-oxo-1H-pyrrolo[2,3-c]pyridin-4-yl)phenyl]-5-oxo-pyrazin-2-yl]ethyl]-1-piperidyl]pyridazine-3-carboxamide]	< 500		> 3000	> 3000			
Cn1cc(-c2cc(C(C)(C)O)ccc2Oc2ccc(C3CC4(CCN(c5ccc(C(=O)N[C@H]6CC[C@H](Oc7ccc(C#N)c(Cl)c7)CC6)nn5)CC4)C3)cc2)c2cc[nH]c2c1=O [I-117]		< 500	< 500	< 500			
CCS(=O)(=O)c1ccc(Oc2cccc(OCCOC3CCN(c4cnc(C(=O)N[C@H]5CC[C@H](Oc6ccc(C#N)c(Cl)c6)CC5)cn4)CC3)c2F)c(-c2cn(C)c(=O)c3[nH]ccc23)c1 [I-32]	< 500		< 500	< 500			
CCS(=O)(=O)c1ccc(Oc2ccc(CCN3CC4(C3)CN(c3ccc(C(=O)N[C@H]5CC[C@H](Oc6ccc(C#N)c(Cl)c6)CC5)nn3)C4)cc2)c(-c2cn(C)c(=O)c3[nH]ccc23)c1 [I-63]		< 500	< 500	< 500			
CCS(=O)(=O)Nc1ccc(Oc2cccc(OCCN3CCN(c4ccc(C(=O)N[C@H]5CC[C@H](Oc6ccc(C#N)c(Cl)c6)CC5)nn4)CC3)c2F)c(-c2cn(C)c(=O)c3[nH]ccc23)c1 [I-14]	< 500		< 500	< 500			
CCS(=O)(=O)Nc1ccc(Oc2cccc(CCCOC3CCN(c4ccc(C(=O)N[C@H]5CC[C@H](Oc6ccc(C#N)c(Cl)c6)CC5)nn4)CC3)c2F)c(-c2cn(C)c(=O)c3[nH]ccc23)c1 [I-37, N-[4-(3-chloro-4-cyano-phenoxy)cyclohexyl]-6-[4-[3-[3-[4-(ethylsulfonylamino)-2-(6-methyl-7-oxo-1H-pyrrolo[2,3-c]pyridin-4-yl)phenoxy]-2-fluoro-phenyl]propoxy]-1-piperidyl]pyridazine-3-carboxamide]					< 500	< 500	< 500
CCS(=O)(=O)Nc1ccc(Oc2cccc(OCCOC3CCN(c4cnc(C(=O)N[C@H]5CC[C@H](Oc6ccc(C#N)c(Cl)c6)CC5)cn4)CC3)c2F)c(-c2cn(C)c(=O)c3[nH]ccc23)c1 [I-31]	< 500		< 500	< 500			
Cn1cc(-c2cc(C(C)(C)O)ccc2Oc2ccc(CCN3CC4(C3)CN(c3ccc(C(=O)N[C@H]5CC[C@H](Oc6ccc(C#N)c(Cl)c6)CC5)nn3)C4)cc2)c2cc[nH]c2c1=O [I-121]		< 500	< 500	500 to 1500			
CCS(=O)(=O)Nc1ccc(Oc2ccc(OCCOC3CCN(c4ccc(C(=O)N[C@H]5CC[C@H](Oc6ccc(C#N)c(Cl)c6)CC5)nn4)CC3)cc2)c(-c2cn(C)c(=O)c3[nH]ccc23)c1 [I-34]		< 500	< 500	< 500			
CCS(=O)(=O)c1ccc(Oc2cccc(CCCN3CCN(c4ccc(C(=O)N[C@H]5CC[C@H](Oc6ccc(C#N)c(Cl)c6)CC5)nn4)CC3)c2F)c(-c2cn(C)c(=O)c3[nH]ccc23)c1 [I-62]		< 500	< 500	< 500			
Cn1cc(-c2cc(C(C)(C)O)ccc2Oc2ccc(CN3CC4(CCN(c5ccc(C(=O)N[C@H]6CC[C@H](Oc7ccc(C#N)c(Cl)c7)CC6)nn5)CC4)C3)cc2)c2cc[nH]c2c1=O [I-120]	< 500		< 500	< 500			
